Molecular target: T1, purified wild type MGL (wt-MGLL 6H-11-313) (Homo sapiens, UniProt Q99685)
T1 construct: purified wild type MGL (wt-MGLL 6H-11-313)
T1 sequence (Q99685 1-303): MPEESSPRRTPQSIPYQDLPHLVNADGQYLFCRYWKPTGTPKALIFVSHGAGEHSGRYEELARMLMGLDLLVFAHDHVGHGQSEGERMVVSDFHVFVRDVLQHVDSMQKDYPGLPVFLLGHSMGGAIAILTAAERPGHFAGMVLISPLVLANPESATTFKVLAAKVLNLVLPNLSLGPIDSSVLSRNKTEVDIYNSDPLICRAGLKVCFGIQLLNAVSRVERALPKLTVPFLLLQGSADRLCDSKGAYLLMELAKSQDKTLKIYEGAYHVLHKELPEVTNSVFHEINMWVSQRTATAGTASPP
Assay: MGL enzyme activity assay (4MU-B cleavage), wild type MGL
Assay type: biochemical
Settings: wild type MGL 5 nM, 4MU-B 10 μM, 37° C.; read-out: MGL wild type inh IC50
Procedure: All rate-based assays were performed in black 384-well polypropylene PCR microplates (Abgene) in a total volume of 30 μL. Substrate 4-methylumbelliferyl butyrate (4MU-B; Sigma) and either purified mutant MGL (mut-MGLL 11-313 L179S L186S) or purified wild type MGL (wt-MGLL 6H-11-313) were diluted separately into 20 mM PIPES buffer (pH=7.0), containing 150 mM NaCl and 0.001% Tween 20. Compounds of Formula (I) were pre-dispensed (50 nL) into the assay plate using a Cartesian Hummingbird prior to adding 4MU-B (25 μL of 1.2× solution to a final concentration of 10 μM) followed by enzyme (5 μL of a 6× solution to a final concentration of 5 nM) to initiate the reaction. Final compound concentrations ranged from 17 to 0.0003 μM. The fluorescence change due to 4MU-B cleavage was monitored with excitation and emission wavelengths of 335 and 440 nm, respectively, and a bandwidth of 10 nm (Safire^2, Tecan) at 37° C. for 5 min.
The IC50 values for the following compounds were determined using Microsoft Office Excel from a fit of the equation to the concentration-response plot of the fractional activity as a function of inhibitor concentration.

Row | SMILES | IC50 [nM]
1 | O=C(c1ccccc1)N1CC[C@H](NC2CN(C(=O)c3sc4cc(F)ccc4c3C3CCC3)C2)C1 [Cpd 79, (3S)-N-{1-[(3-Cyclobutyl-6-fluoro-1-benzothiophen-2-yl)carbonyl]azetidin-3-yl}-1-(phenylcarbonyl)pyrrolidin-3-amine] | 281
2 | O=C(c1ccccc1)N1CC[C@H](NC2CN(C(=O)c3sc4cc(C(F)(F)F)ccc4c3F)C2)C1 [Cpd 89, (3S)-N-(1-{[3-Fluoro-6-(trifluoromethyl)-1-benzothiophen-2-yl]carbonyl}azetidin-3-yl)-1-(phenylcarbonyl)pyrrolidin-3-amine] | 154
3 | Cc1c(C(=O)N2CC(N[C@H]3CCN(C(=O)c4nccs4)C3)C2)sc2ccc(-c3ccc(C(F)(F)F)cc3)cc12 [Cpd 91, (3S)-N-[1-({3-Methyl-5-[4-(trifluoromethyl)phenyl]-1-benzothiophen-2-yl}carbonyl)azetidin-3-yl]-1-(1,3-thiazol-2-ylcarbonyl)pyrrolidin-3-amine] | < 5
4 | O=C(c1cc2ccc(Br)cc2s1)N1CC(N[C@H]2CCN(C(=O)c3nccs3)C2)C1 [Cpd 95, (3S)-N-{1-[(6-Bromo-1-benzothiophen-2-yl)carbonyl]azetidin-3-yl}-1-(1,3-thiazol-2-ylcarbonyl)pyrrolidin-3-amine] | 410
5 | O=C(c1cscn1)N1CC[C@H](NC2CN(C(=O)c3cc4ccc(Br)cc4s3)C2)C1 [Cpd 96, (3S)-N-{1-[(6-Bromo-1-benzothiophen-2-yl)carbonyl]azetidin-3-yl}-1-(1,3-thiazol-4-ylcarbonyl)pyrrolidin-3-amine] | 1050
6 | O=C(c1ccccc1)N1CC[C@H](NC2CN(C(=O)c3cc4cc(Br)ccc4o3)C2)C1 [Cpd 107, (3S)-N-{1-[(5-Bromo-1-benzofuran-2-yl)carbonyl]azetidin-3-yl}-1-(phenylcarbonyl)pyrrolidin-3-amine] | > 16700
7 | O=C(c1ccc2c(-c3ccc(C(F)(F)F)cc3)ncnc2c1)N1CC(N[C@H]2CCN(C(=O)c3ccccc3)C2)C1 [Cpd 109, (3S)-1-(Phenylcarbonyl)-N-[1-({4-[4-(trifluoromethyl)phenyl]quinazolin-7-yl}carbonyl)azetidin-3-yl]pyrrolidin-3-amine] | 857
8 | O=C(c1ccc2c(-c3ccccc3)ncnc2c1)N1CC(N[C@H]2CCN(C(=O)c3nccs3)C2)C1 [Cpd 110, (3S)-N-{1-[(4-Phenylquinazolin-7-yl)carbonyl]azetidin-3-yl}-1-(1,3-thiazol-2-ylcarbonyl)pyrrolidin-3-amine] | 311
9 | O=C(c1ccc2c(-c3ccc(C(F)(F)F)cc3)ncnc2c1)N1CC(N[C@H]2CCN(C(=O)c3nccs3)C2)C1 [Cpd 111, (3S)-1-(1,3-Thiazol-2-ylcarbonyl)-N-[1-({4-[4-(trifluoromethyl)phenyl]quinazolin-7-yl}carbonyl)azetidin-3-yl]pyrrolidin-3-amine] | 179
10 | O=C(c1ccc2c(-c3ccccc3)ncnc2c1)N1CC(N[C@H]2CCN(C(=O)c3cscn3)C2)C1 [Cpd 112, (3S)-N-{1-[(4-Phenylquinazolin-7-yl)carbonyl]azetidin-3-yl}-1-(1,3-thiazol-4-ylcarbonyl)pyrrolidin-3-amine] | 1660
11 | Cc1c(C(=O)N2CC(N[C@H]3CCN(C(=O)c4cscn4)C3)C2)sc2ccc(-c3cccc(C(F)(F)F)c3)cc12 [Cpd 125, (3S)-N-[1-({3-Methyl-5-[3-(trifluoromethyl)phenyl]-1-benzothiophen-2-yl}carbonyl)azetidin-3-yl]-1-(1,3-thiazol-4-ylcarbonyl)pyrrolidin-3-amine] | < 5
12 | Cc1nc(-c2ccccc2F)sc1C(=O)N1CC(N[C@H]2CCN(C(=O)c3nccs3)C2)C1 [Cpd 134, (3S)-N-(1-{[2-(2-Fluorophenyl)-4-methyl-1,3-thiazol-5-yl]carbonyl}azetidin-3-yl)-1-(1,3-thiazol-2-ylcarbonyl)pyrrolidin-3-amine] | 2930
13 | Cc1nc(-c2ccc(F)cc2)sc1C(=O)N1CC(N[C@H]2CCN(C(=O)c3nccs3)C2)C1 [Cpd 135, (3S)-N-(1-{[2-(4-Fluorophenyl)-4-methyl-1,3-thiazol-5-yl]carbonyl}azetidin-3-yl)-1-(1,3-thiazol-2-ylcarbonyl)pyrrolidin-3-amine] | 1130
14 | Cc1nc(-c2cccc(Cl)c2)sc1C(=O)N1CC(N[C@H]2CCN(C(=O)c3nccs3)C2)C1 [Cpd 136, (3S)-N-(1-{[2-(3-Chlorophenyl)-4-methyl-1,3-thiazol-5-yl]carbonyl}azetidin-3-yl)-1-(1,3-thiazol-2-ylcarbonyl)pyrrolidin-3-amine] | 165

Second part, the compound after the results:

Row | IC50 [nM] | SMILES
15 | 277 | O=C(c1ccccc1)N1CC[C@H](NC2CN(C(=O)c3sc4cc(C(F)(F)F)ccc4c3-c3ccccc3)C2)C1 [Cpd 74, (3S)-1-(Phenylcarbonyl)-N-(1-{[3-phenyl-6-(trifluoromethyl)-1-benzothiophen-2-yl]carbonyl}azetidin-3-yl)pyrrolidin-3-amine]
16 | 210 | O=C(c1ccccc1)N1CC[C@H](NC2CN(C(=O)c3sc4cc(C(F)(F)F)ccc4c3C3CC3)C2)C1 [Cpd 75, (3S)-N-(1-{[3-Cyclopropyl-6-(trifluoromethyl)-1-benzothiophen-2-yl]carbonyl}azetidin-3-yl)-1-(phenylcarbonyl)pyrrolidin-3-amine]
17 | 4880 | Cc1c(C(=O)N2CC(N(C=O)[C@H]3CCN(C(=O)c4ccccc4)C3)C2)sc2ccc(Cl)cc12 [Cpd 81, N-[1-[(5-Chloro-3-methyl-1-benzothiophen-2-yl)carbonyl]azetidin-3-yl]-N-[(3S)-1-(phenylcarbonyl)pyrrolidin-3-yl]formamide]
18 | 231 | Cc1c(C(=O)N2CC(N(C=O)[C@H]3CCN(C(=O)c4nccs4)C3)C2)sc2ccc(Cl)cc12 [Cpd 82, N-{1-[(5-Chloro-3-methyl-1-benzothiophen-2-yl)carbonyl]azetidin-3-yl}-N-[(3S)-1-(1,3-thiazol-2-ylcarbonyl)pyrrolidin-3-yl]formamide]
19 | 2440 | Cc1c(C(=O)N2CC(N(C=O)[C@H]3CCN(C(=O)c4cscn4)C3)C2)sc2ccc(Cl)cc12 [Cpd 83, N-{1-[(5-Chloro-3-methyl-1-benzothiophen-2-yl)carbonyl]azetidin-3-yl}-N-[(3S)-1-(1,3-thiazol-4-ylcarbonyl)pyrrolidin-3-yl]formamide]
20 | 298 | Cc1c(C(=O)N2CC(N[C@H]3CCN(C(=O)c4ccccc4)C3)C2)sc2cc(F)ccc12 [Cpd 86, (3S)-N-{1-[(6-Fluoro-3-methyl-1-benzothiophen-2-yl)carbonyl]azetidin-3-yl}-1-(phenylcarbonyl)pyrrolidin-3-amine]
21 | 152 | Cc1c(C(=O)N2CC(N[C@H]3CCN(C(=O)c4cscn4)C3)C2)sc2cc(F)ccc12 [Cpd 88, (3S)-N-{1-[(6-Fluoro-3-methyl-1-benzothiophen-2-yl)carbonyl]azetidin-3-yl}-1-(1,3-thiazol-4-ylcarbonyl)pyrrolidin-3-amine]
22 | 133 | O=C(c1cc2cc(Br)ccc2s1)N1CC(N[C@H]2CCN(C(=O)c3nccs3)C2)C1 [Cpd 97, (3S)-N-{1-[(5-Bromo-1-benzothiophen-2-yl)carbonyl]azetidin-3-yl}-1-(1,3-thiazol-2-ylcarbonyl)pyrrolidin-3-amine]
23 | 3100 | O=C(c1cscn1)N1CC[C@H](NC2CN(C(=O)c3cc4cc(Br)ccc4s3)C2)C1 [Cpd 98, (3S)-N-{1-[(5-Bromo-1-benzothiophen-2-yl)carbonyl]azetidin-3-yl}-1-(1,3-thiazol-4-ylcarbonyl)pyrrolidin-3-amine]
24 | 1030 | O=C(c1ccc2c(-c3ccccc3)ncnc2c1)N1CC(N[C@H]2CCN(C(=O)c3ccccc3)C2)C1 [Cpd 108, (3S)-1-(Phenylcarbonyl)-N-{1-[(4-phenylquinazolin-7-yl)carbonyl]azetidin-3-yl}pyrrolidin-3-amine]
25 | 372 | O=C(c1ccc2c(cnn2-c2ccccc2)c1)N1CC(N[C@H]2CCN(C(=O)c3nccs3)C2)C1 [Cpd 120, (3S)-N-{1-[(1-Phenyl-1H-indazol-5-yl)carbonyl]azetidin-3-yl}-1-(1,3-thiazol-2-ylcarbonyl)pyrrolidin-3-amine]
26 | 1750 | O=C(c1ccccc1)N1CC[C@H](NC2CN(C(=O)c3cc4cc(-c5ccccc5)ccc4o3)C2)C1 [Cpd 121, (3S)-N-{1-[(5-Phenyl-1-benzofuran-2-yl)carbonyl]azetidin-3-yl}-1-(phenylcarbonyl)pyrrolidin-3-amine]
27 | 145 | O=C(c1ccc2nc(-c3ccccc3)sc2c1)N1CC(N[C@H]2CCN(C(=O)c3nccs3)C2)C1 [Cpd 133, (3S)-N-{1-[(2-Phenyl-1,3-benzothiazol-6-yl)carbonyl]azetidin-3-yl}-1-(1,3-thiazol-2-ylcarbonyl)pyrrolidin-3-amine]
28 | 446 | Cc1nc(-c2ccc(Cl)cc2)sc1C(=O)N1CC(N[C@H]2CCN(C(=O)c3nccs3)C2)C1 [Cpd 137, (3S)-N-(1-{[2-(4-Chlorophenyl)-4-methyl-1,3-thiazol-5-yl]carbonyl}azetidin-3-yl)-1-(1,3-thiazol-2-ylcarbonyl)pyrrolidin-3-amine]

From patent US8748417B2, “Amino-pyrrolidine-azetidine diamides as monoacylglycerol lipase inhibitors” (Janssen Pharmaceutica, NV, priority 2010, dated 2014)
